pIC50: −log10 of the molar value.
Assays:
HCT-116 [1] = assay: Antiproliferative activity against human HCT-116 cells incubated for 24 to 72 hrs by MTT assay; type: functional, cell-based; details: dose 0.1-100 µM, time 24-72 hrs
[2] = Selectivity index, ratio of IC50 for human CCD-841CoN cells to IC50 for human HCT-116 cells; type: toxicity; details: CCD-841CoN cells and HCT-116 cells, read-out: Ratio IC50
A549 [3] = assay: Antiproliferative activity against human A549 cells at 0.1 to 100 uM by MTT assay; type: functional, cell-based; details: dose 0.1-100 µM, time 24-72 hrs, TDE = time-dependent effect
HCT-116 [4] = assay: Downregulation of beta-catenin expression in human HCT-116 cells cytosol after 24 hrs by Western blotting analysis; type: functional, subcellular; details: dose 0.5-2 µM
A549 [5] = assay: Antiproliferative activity against human A549 cells incubated for 72 hrs by MTT assay; type: functional, cell-based; details: A549, 72 h
HCT-116 [6] = assay: Induction of NO production in human HCT-116 cells incubated for 6 hrs by Griess reagent based assay; type: functional, cell-based; details: dose 1-10 µM
A549 [7] = assay: Antiproliferative activity against human A549 cells incubated for 24 hrs by MTT assay; type: functional, cell-based; details: A549, 24 h
[8] = Cytotoxicity against human CCD-841CoN cells incubated for 24 hrs by MTT assay; type: toxicity, cell-based
HCT-116 [9] = assay: Downregulation of beta-catenin expression in human HCT-116 cells nucleus after 24 hrs by Western blotting analysis; type: functional, subcellular; details: dose 0.5-2 µM
HCT-116 [10] = assay: Antiproliferative activity against human HCT-116 cells incubated for 72 hrs by MTT assay; type: functional, cell-based; details: HCT-116, 72 h
HCT-116 [11] = assay: Downregulation of phosphorylated GSK-3beta at Ser9 residue expression in human HCT-116 cells after 24 hrs by Western blotting analysis; type: functional, cell-based; details: dose 0.5-2 µM
HCT-116 [12] = assay: Antiproliferative activity against human HCT-116 cells incubated for 24 hrs by MTT assay; type: functional, cell-based; details: HCT-116, 24 h
A549 [13] = assay: Antiproliferative activity against human A549 cells incubated for 24 to 72 hrs by MTT assay; type: functional, cell-based; details: dose 0.1-100 µM, time 24-72 hrs
[14] = Cytotoxicity against human CCD-841CoN cells incubated for 72 hrs by MTT assay; type: toxicity, cell-based
HCT-116 [15] = assay: Antiproliferative activity against human HCT-116 cells at 0.1 to 100 uM by MTT assay; type: functional, cell-based; details: dose 0.1-100 µM, time 24-72 hrs, TDE = time-dependent effect

| Compound | Activity (HCT-116 [1]) | selectivity ratio [2] | Activity (A549 [3]) | Activity (HCT-116 [4]) | pIC50 (A549 [5]) | Activity (HCT-116 [6]) | pIC50 (A549 [7]) | IC50 at 24 h [8] [µM] | Activity (HCT-116 [9]) | pIC50 (HCT-116 [10]) | Activity (HCT-116 [11]) | pIC50 (HCT-116 [12]) | Activity (A549 [13]) | IC50 at 72 h [14] [µM] | Activity (HCT-116 [15]) |
| --- | --- | --- | --- | --- | --- | --- | --- | --- | --- | --- | --- | --- | --- | --- | --- |
| CCN(CC)/[N+]([O-])=N/OCOC(=O)CCCCOc1c(OC)cc(/C=C/C(=O)N2CCC=C(Cl)C2=O)cc1OC | Dose-Dependent Effect | > 10 | Tde | Dose-Dependent Effect | 6.22 | Dose-Dependent Effect | 6.10 | 11.3 | Dose-Dependent Effect | 6.22 | Dose-Dependent Effect | 6.05 | Dose-Dependent Effect | 6.1 | Tde |
| COc1cc(/C=C/C(=O)N2CCC=CC2=O)cc(OC)c1OC [PIPLARTINE] | Dose-Dependent Effect | – | Tde | – | 5.14 | – | 4.88 | – | – | 5.07 | – | 4.88 | Dose-Dependent Effect | – | Tde |
| COc1cc(/C=C/C(=O)N2CCC=C(Cl)C2=O)cc(OC)c1OCCCCC(=O)OCO/N=[N+](\[O-])N1CCOCC1 | Dose-Dependent Effect | – | Tde | – | 6.15 | Dose-Dependent Effect | 5.96 | – | – | 6.15 | – | 5.96 | Dose-Dependent Effect | – | Tde |
| CCN(CC)/[N+]([O-])=N/CONC(=O)/C=C/c1cc(OC)c(OCCCCC(=O)OCO/N=[N+](\[O-])N(CC)CC)c(OC)c1 | Dose-Dependent Effect | – | Tde | – | 5.47 | Dose-Dependent Effect | 5.24 | – | – | 5.41 | – | 5.27 | Dose-Dependent Effect | – | Tde |
| COc1cc(/C=C/C(=O)NOC/N=[N+](\[O-])N2CCOCC2)cc(OC)c1OCCCCC(=O)OCO/N=[N+](\[O-])N1CCOCC1 | Dose-Dependent Effect | – | Tde | – | 4.97 | Dose-Dependent Effect | 4.74 | – | – | 4.55 | – | 4.45 | Dose-Dependent Effect | – | Tde |
| O=c1[nH]cc(F)c(=O)[nH]1 [FLUOROURACIL] | – | – | – | – | 4.62 | – | – | – | – | 4.71 | – | 4.53 | – | – | – |
| CCN(CC)OC(=O)CCCCOc1c(OC)cc(/C=C/C(=O)N2CCC=C(Cl)C2=O)cc1OC | – | – | – | – | – | – | – | – | – | 5.55 | – | 5.20 | – | – | – |
| COc1cc(/C=C/C(=O)N2CCC=C(Cl)C2=O)cc(OC)c1OC | – | – | – | – | – | – | 4.99 | – | – | 5.21 | – | 4.94 | – | – | – |
